Assay results reported in ChEMBL document CHEMBL2406991, “A novel series of metabotropic glutamate receptor 5 negative allosteric modulators based on a 4,5,6,7-tetrahydropyrazolo[1,5-a]pyridine core” (Bioorg Med Chem Lett, 2013).
Converted amounts (≈) assume the structure as drawn. The source made the active and inactive calls. The rule behind the calls is not given here.

Test system: not listed separately
Assay: Cmax in rat plasma at 30 mg/kg, sc
Type: ADME, organism-based
Parameters: dose 30 mg/kg, route subcutaneous
Conditions: not given

Row | Cmax [ng/mL] | SMILES
1 | 2900 | N#Cc1ccc(COc2cc3n(n2)CCCC3)nc1

Test system: Plasma
Assay: Terminal plasma concentration in Sprague-Dawley rat at 1 mg/kg, po measured during second phase of formalin test
Type: ADME, organism-based
Parameters: dose 1 mg/kg, route oral
Conditions: in vivo

Row | Cp(T) [ng/mL] | SMILES
2 | 2.4 | N#Cc1ccc(COc2cc3n(n2)CCCC3)nc1

Test system: Plasma
Assay: Terminal plasma concentration in Sprague-Dawley rat at 30 mg/kg, po measured during second phase of formalin test
Type: ADME, organism-based
Parameters: dose 30 mg/kg, route oral
Conditions: in vivo

Row | Cp(T) [ng/mL] | SMILES
3 | 501 | N#Cc1ccc(COc2cc3n(n2)CCCC3)nc1

Test system: not listed separately
Assay: Half life in rat at 3 mg/kg, iv
Type: ADME, organism-based
Parameters: dose 3 mg/kg, route intravenous
Conditions: in vivo

Row | half-life [min] | SMILES
4 | 12 | N#Cc1ccc(COc2cc3n(n2)CCCC3)nc1

Test system: Rattus norvegicus
Assay: Antinociceptive activity in po dosed Sprague-Dawley rat assessed as reduction in formalin-induced nocifensive behavior administered 30 mins prior to formalin-challenge measured during second phase of test
Type: functional, organism-based
Conditions: not given

Row | SMILES | Activity
5 | N#Cc1ccc(COc2cc3n(n2)CCCC3)nc1 | Dose-dependent effect

Test system: not listed separately
Assay: Kinetic solubility of the compound in DMSO at pH 7.4
Type: physicochemical
Conditions: read-out: Kinetic_solubility

Row | SMILES | solubility kinetic [µg/mL]
6 | c1ccc(-c2cc3n(n2)CCCC3)nc1 | 180 (≈ 903 µM)
7 | N#Cc1ccc(COc2cc3n(n2)CCCC3)nc1 | 100 (≈ 393 µM)

More lines, now with the values ahead:

Row | solubility kinetic [µg/mL] | SMILES
8 | 20 (≈ 85.9 µM) | Clc1cccc(-c2cc3n(n2)CCCC3)c1
9 | 40 (≈ 154 µM) | O=C(Nc1ccc(F)cn1)c1cc2n(n1)CCCC2
10 | 30 (≈ 113 µM) | N#Cc1ccc(CC(=O)c2cc3n(n2)CCCC3)nc1

Target: Metabotropic glutamate receptor 5 (Rattus norvegicus) (UniProt P31424)
Sequence (P31424 21-1203 limits assumed): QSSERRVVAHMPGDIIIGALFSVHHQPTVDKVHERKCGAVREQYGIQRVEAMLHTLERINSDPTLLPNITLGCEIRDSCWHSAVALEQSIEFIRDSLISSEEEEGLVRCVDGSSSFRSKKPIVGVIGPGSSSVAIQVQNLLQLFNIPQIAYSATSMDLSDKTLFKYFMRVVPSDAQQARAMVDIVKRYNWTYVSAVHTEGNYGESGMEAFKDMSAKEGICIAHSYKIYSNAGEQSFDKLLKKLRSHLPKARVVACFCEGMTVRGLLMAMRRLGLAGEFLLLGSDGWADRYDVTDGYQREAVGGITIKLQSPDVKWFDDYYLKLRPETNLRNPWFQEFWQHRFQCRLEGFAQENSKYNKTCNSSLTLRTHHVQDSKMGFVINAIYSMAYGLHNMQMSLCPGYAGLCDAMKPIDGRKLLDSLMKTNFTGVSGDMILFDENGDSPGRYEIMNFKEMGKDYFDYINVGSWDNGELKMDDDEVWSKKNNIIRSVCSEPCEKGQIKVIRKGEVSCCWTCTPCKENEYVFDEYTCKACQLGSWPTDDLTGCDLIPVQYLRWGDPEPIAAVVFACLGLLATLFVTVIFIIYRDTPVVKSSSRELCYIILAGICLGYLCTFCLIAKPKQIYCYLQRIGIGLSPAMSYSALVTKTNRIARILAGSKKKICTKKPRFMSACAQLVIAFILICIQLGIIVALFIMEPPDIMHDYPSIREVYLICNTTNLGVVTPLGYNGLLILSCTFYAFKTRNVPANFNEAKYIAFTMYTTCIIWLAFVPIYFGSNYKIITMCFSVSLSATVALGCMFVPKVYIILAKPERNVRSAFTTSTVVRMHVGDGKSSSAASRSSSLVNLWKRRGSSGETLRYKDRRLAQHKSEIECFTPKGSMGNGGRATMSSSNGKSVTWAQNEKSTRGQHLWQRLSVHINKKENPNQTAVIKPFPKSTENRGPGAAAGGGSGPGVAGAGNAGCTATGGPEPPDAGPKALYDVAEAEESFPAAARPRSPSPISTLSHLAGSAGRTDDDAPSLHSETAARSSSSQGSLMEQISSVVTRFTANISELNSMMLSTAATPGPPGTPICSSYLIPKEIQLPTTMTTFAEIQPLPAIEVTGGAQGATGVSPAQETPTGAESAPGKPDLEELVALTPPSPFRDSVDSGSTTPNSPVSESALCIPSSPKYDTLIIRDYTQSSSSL
Assay: Inhibition of rat mGluR5 receptor expressed in HEK293 cells at 30 uM relative to control
Type: cell-based
Conditions: not given

Row | SMILES | inhibition [%]
11 | c1ccc(-c2cc3n(n2)CCCC3)nc1 | > 99
12 | Cc1cc(C(=O)Nc2ccc(C#N)cn2)nn1C | > 99
13 | N#Cc1ccc(COc2cc3n(n2)CCCC3)nc1 | > 99

More lines, now with the values ahead:

Row | inhibition [%] | SMILES
14 | > 99 | Clc1cccc(-c2cc3n(n2)CCCC3)c1
15 | > 99 | O=C(Nc1ccc(F)cn1)c1cc2n(n1)CCCC2
16 | > 99 | N#Cc1ccc(CC(=O)c2cc3n(n2)CCCC3)nc1

Test system: not listed separately
Assay: Cmax in rat CSF at 30 mg/kg, sc
Type: ADME, organism-based, Cerebrospinal fluid
Parameters: dose 30 mg/kg, route subcutaneous
Conditions: not given

Row | Cmax [ng/mL] | SMILES
17 | 416 | N#Cc1ccc(COc2cc3n(n2)CCCC3)nc1

Test system: not listed separately
Assay: Fraction unbound in rat plasma
Type: ADME, cell-free
Conditions: not given

Row | fraction unbound | SMILES
18 | 0.32 | N#Cc1ccc(COc2cc3n(n2)CCCC3)nc1

Target: Cytochrome P450 3A4 (Homo sapiens, UniProt P08684)
Sequence (P08684 whole entry): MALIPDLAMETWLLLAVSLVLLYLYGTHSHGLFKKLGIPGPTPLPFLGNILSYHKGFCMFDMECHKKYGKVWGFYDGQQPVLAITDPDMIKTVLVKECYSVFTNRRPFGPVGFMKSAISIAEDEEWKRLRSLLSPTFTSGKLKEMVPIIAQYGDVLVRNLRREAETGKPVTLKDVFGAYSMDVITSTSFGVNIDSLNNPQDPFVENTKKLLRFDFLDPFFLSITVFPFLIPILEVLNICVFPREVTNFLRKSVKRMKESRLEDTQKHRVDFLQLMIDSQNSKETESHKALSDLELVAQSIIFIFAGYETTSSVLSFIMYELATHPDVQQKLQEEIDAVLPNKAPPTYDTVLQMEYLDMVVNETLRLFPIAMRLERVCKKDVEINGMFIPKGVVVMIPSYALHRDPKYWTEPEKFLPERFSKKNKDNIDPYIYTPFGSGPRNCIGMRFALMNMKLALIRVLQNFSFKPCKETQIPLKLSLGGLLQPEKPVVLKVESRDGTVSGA
Assay: Inhibition of CYP3A4 (unknown origin)
Type: ADME
Conditions: not given

Row | SMILES | INH [µM]
19 | c1ccc(-c2cc3n(n2)CCCC3)nc1 | > 10
20 | N#Cc1ccc(COc2cc3n(n2)CCCC3)nc1 | > 10

Second part, the molecule after the results:

Row | INH [µM] | SMILES
21 | > 10 | O=C(Nc1ccc(F)cn1)c1cc2n(n1)CCCC2
22 | > 10 | N#Cc1ccc(CC(=O)c2cc3n(n2)CCCC3)nc1

Test system: Plasma
Assay: Drug uptake in rat CSF assessed as ratio of CSF to plasma at 30 mg/kg, sc relative to control
Type: ADME, organism-based
Parameters: dose 30 mg/kg, route subcutaneous
Conditions: in vivo

Row | Drug uptake [%] | SMILES
23 | 14.4 | N#Cc1ccc(COc2cc3n(n2)CCCC3)nc1

Test system: not listed separately
Assay: Kinetic solubility of the compound in DMSO at pH 1
Type: physicochemical
Conditions: read-out: Kinetic_solubility

Row | SMILES | solubility kinetic [µg/mL]
24 | c1ccc(-c2cc3n(n2)CCCC3)nc1 | 170 (≈ 853 µM)
25 | N#Cc1ccc(COc2cc3n(n2)CCCC3)nc1 | 160 (≈ 629 µM)

Continued, values first:

Row | solubility kinetic [µg/mL] | SMILES
26 | 110 (≈ 473 µM) | Clc1cccc(-c2cc3n(n2)CCCC3)c1
27 | 100 (≈ 384 µM) | O=C(Nc1ccc(F)cn1)c1cc2n(n1)CCCC2
28 | 80 (≈ 300 µM) | N#Cc1ccc(CC(=O)c2cc3n(n2)CCCC3)nc1

Test system: Plasma
Assay: Metabolic stability in rat plasma matrix
Type: ADME, cell-free
Conditions: not given

Row | Stability | SMILES
29 | Unstable | O=C(Nc1ccc(F)cn1)c1cc2n(n1)CCCC2

Target: T1, Cytochrome P450 1A2 (Homo sapiens, UniProt P05177)
T1 sequence (P05177 whole entry): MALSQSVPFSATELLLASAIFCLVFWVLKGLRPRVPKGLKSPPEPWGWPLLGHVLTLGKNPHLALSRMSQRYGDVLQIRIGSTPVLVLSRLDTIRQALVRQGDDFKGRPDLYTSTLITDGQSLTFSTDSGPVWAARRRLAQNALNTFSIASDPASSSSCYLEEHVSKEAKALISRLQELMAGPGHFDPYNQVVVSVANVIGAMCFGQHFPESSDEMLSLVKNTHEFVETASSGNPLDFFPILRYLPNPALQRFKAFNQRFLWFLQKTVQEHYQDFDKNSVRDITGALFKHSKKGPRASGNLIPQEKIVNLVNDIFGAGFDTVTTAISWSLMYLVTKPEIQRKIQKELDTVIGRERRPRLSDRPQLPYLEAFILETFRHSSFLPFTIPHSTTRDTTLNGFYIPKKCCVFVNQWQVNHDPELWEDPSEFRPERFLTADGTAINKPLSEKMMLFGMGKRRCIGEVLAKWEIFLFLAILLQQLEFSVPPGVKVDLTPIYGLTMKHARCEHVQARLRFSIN
Assay: Inhibition of CYP1A2 (unknown origin)
Type: ADME
Conditions: not given

Row | SMILES | INH [µM]
30 | c1ccc(-c2cc3n(n2)CCCC3)nc1 | > 10
31 | N#Cc1ccc(COc2cc3n(n2)CCCC3)nc1 | > 10

Next, values leading:

Row | INH [µM] | SMILES
32 | < 0.75 | Clc1cccc(-c2cc3n(n2)CCCC3)c1
33 | > 10 | O=C(Nc1ccc(F)cn1)c1cc2n(n1)CCCC2
34 | > 10 | N#Cc1ccc(CC(=O)c2cc3n(n2)CCCC3)nc1

Test system: not listed separately
Assay: Intrinsic clearance in human microsomes measured per mg of protein
Type: ADME, Microsome
Conditions: not given

Row | SMILES | microsomal CLint [µL/min/mg]
35 | c1ccc(-c2cc3n(n2)CCCC3)nc1 | 97
36 | Cc1cc(C(=O)Nc2ccc(C#N)cn2)nn1C | < 5
37 | N#Cc1ccc(COc2cc3n(n2)CCCC3)nc1 | 85

Other lines, results leading:

Row | microsomal CLint [µL/min/mg] | SMILES
38 | 386 | Clc1cccc(-c2cc3n(n2)CCCC3)c1
39 | 31 | O=C(Nc1ccc(F)cn1)c1cc2n(n1)CCCC2
40 | 46 | N#Cc1ccc(CC(=O)c2cc3n(n2)CCCC3)nc1

Target: Cytochrome P450 2C9 (Homo sapiens, UniProt P11712)
Sequence (P11712 whole entry): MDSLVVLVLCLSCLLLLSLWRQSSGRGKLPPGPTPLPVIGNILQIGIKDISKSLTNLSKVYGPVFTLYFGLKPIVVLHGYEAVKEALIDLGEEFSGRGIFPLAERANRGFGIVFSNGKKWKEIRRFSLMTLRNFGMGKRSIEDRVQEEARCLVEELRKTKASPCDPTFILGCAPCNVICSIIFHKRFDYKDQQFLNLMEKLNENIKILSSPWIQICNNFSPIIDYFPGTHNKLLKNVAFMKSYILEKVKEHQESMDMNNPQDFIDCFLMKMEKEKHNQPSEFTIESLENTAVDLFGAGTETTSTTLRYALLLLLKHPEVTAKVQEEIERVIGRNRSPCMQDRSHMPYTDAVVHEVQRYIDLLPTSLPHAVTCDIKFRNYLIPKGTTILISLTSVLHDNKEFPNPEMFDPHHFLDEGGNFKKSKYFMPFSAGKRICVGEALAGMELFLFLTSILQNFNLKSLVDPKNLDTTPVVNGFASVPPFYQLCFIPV
Assay: Inhibition of CYP2C9 (unknown origin)
Type: ADME
Conditions: not given

Row | SMILES | INH [µM]
41 | c1ccc(-c2cc3n(n2)CCCC3)nc1 | > 10
42 | N#Cc1ccc(COc2cc3n(n2)CCCC3)nc1 | > 10

Continued, values first:

Row | INH [µM] | SMILES
43 | > 10 | O=C(Nc1ccc(F)cn1)c1cc2n(n1)CCCC2
44 | > 10 | N#Cc1ccc(CC(=O)c2cc3n(n2)CCCC3)nc1

Test system: Plasma
Assay: Terminal plasma concentration in Sprague-Dawley rat at 10 mg/kg, po measured during second phase of formalin test
Type: ADME, organism-based
Parameters: dose 10 mg/kg, route oral
Conditions: in vivo

Row | Cp(T) [ng/mL] | SMILES
45 | 46 | N#Cc1ccc(COc2cc3n(n2)CCCC3)nc1

Test system: not listed separately
Assay: Volume of distribution at steady state in rat at 3 mg/kg, iv
Type: ADME, organism-based
Parameters: dose 3 mg/kg, route intravenous
Conditions: in vivo, read-out: Vdss

Row | Vd [L/kg] | SMILES
46 | 1.1 | N#Cc1ccc(COc2cc3n(n2)CCCC3)nc1

Test system: Plasma
Assay: Terminal plasma concentration in Sprague-Dawley rat at 3 mg/kg, po measured during second phase of formalin test
Type: ADME, organism-based
Parameters: dose 3 mg/kg, route oral
Conditions: in vivo

Row | Cp(T) [ng/mL] | SMILES
47 | 5.3 | N#Cc1ccc(COc2cc3n(n2)CCCC3)nc1

Test system: Rattus norvegicus
Assay: Antinociceptive activity in Sprague-Dawley rat assessed as reduction in formalin-induced nocifensive behavior at 30 mg/kg, po administered 30 mins prior to formalin-challenge measured during second phase of test
Type: functional, organism-based
Parameters: dose 30 mg/kg
Conditions: not given

Row | SMILES | Activity
48 | N#Cc1ccc(COc2cc3n(n2)CCCC3)nc1 | Active

Test system: not listed separately
Assay: Clearance in rat at 3 mg/kg, iv
Type: ADME, organism-based
Parameters: dose 3 mg/kg, route intravenous
Conditions: in vivo

Row | clearance [mL/min/kg] | SMILES
49 | 72 | N#Cc1ccc(COc2cc3n(n2)CCCC3)nc1

Target: Cytochrome P450 2D6 (Homo sapiens, UniProt P10635)
Sequence (P10635 whole entry): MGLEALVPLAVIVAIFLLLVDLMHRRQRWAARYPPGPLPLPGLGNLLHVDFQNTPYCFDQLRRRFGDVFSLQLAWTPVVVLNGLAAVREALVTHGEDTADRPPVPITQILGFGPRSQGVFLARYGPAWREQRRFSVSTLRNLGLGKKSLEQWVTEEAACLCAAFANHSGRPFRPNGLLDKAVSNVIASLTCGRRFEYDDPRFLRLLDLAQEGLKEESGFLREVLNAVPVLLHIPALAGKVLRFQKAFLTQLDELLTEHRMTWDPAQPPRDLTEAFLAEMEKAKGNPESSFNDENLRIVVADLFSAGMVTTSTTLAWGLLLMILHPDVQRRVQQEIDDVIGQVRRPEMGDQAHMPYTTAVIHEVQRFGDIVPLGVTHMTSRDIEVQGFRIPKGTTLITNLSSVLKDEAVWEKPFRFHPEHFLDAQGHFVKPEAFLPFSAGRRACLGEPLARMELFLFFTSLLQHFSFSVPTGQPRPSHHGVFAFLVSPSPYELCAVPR
Assay: Inhibition of CYP2D6 (unknown origin)
Type: ADME
Conditions: not given

Row | SMILES | INH [µM]
50 | c1ccc(-c2cc3n(n2)CCCC3)nc1 | > 10
51 | N#Cc1ccc(COc2cc3n(n2)CCCC3)nc1 | > 10

Second part, the molecule after the results:

Row | INH [µM] | SMILES
52 | > 10 | O=C(Nc1ccc(F)cn1)c1cc2n(n1)CCCC2
53 | > 10 | N#Cc1ccc(CC(=O)c2cc3n(n2)CCCC3)nc1

Target: Metabotropic glutamate receptor 5 (Rattus norvegicus) (UniProt P31424)
Assay: Displacement of [3H]MPEP from mGluR5 receptor in Sprague-Dawley rat cortical homogenate after 1 hr by liquid scintillation spectrometric analysis
Conditions: not given

Row | SMILES | INH [nM]
54 | c1ccc(-c2cc3n(n2)CCCC3)nc1 | 1180
55 | N#Cc1ccc(COc2cc3n(n2)CCCC3)nc1 | 299

Now from value to molecule:

Row | INH [nM] | SMILES
56 | 401 | Clc1cccc(-c2cc3n(n2)CCCC3)c1
57 | 166 | O=C(Nc1ccc(F)cn1)c1cc2n(n1)CCCC2
58 | 139 | N#Cc1ccc(CC(=O)c2cc3n(n2)CCCC3)nc1

Target: Metabotropic glutamate receptor 5 (Rattus norvegicus, UniProt P31424)
Sequence (P31424 whole entry): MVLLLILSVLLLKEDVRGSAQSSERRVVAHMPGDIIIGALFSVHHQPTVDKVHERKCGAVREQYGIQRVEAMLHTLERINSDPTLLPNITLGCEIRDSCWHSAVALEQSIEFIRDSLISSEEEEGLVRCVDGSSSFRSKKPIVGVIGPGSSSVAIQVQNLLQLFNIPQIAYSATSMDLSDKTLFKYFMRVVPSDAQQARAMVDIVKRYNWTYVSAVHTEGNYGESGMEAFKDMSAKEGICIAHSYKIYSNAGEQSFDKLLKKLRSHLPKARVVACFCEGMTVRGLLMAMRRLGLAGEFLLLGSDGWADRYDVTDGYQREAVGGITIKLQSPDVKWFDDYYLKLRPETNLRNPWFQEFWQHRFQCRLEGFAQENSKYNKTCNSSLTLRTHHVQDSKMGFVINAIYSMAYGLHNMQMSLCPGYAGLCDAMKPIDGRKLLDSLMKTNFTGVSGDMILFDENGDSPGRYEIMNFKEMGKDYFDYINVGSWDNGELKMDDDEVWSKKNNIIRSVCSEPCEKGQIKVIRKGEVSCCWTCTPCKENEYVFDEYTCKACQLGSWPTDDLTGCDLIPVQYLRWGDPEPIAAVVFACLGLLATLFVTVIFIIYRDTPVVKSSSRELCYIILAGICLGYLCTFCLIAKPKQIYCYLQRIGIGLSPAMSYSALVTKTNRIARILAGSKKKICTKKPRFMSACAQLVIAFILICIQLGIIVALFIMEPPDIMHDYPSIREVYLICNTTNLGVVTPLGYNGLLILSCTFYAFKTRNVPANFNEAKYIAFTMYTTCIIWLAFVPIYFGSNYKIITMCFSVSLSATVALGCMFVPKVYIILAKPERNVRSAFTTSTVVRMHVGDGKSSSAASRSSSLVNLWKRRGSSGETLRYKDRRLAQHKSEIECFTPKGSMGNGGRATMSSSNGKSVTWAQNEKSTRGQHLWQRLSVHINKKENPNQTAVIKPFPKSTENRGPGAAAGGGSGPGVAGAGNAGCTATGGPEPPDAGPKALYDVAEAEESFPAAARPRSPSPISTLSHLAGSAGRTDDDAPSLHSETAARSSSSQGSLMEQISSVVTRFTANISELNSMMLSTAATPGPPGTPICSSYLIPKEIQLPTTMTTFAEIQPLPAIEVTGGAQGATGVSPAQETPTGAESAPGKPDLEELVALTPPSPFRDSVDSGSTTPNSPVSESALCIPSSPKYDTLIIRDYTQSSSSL
Assay: Negative allosteric modulation of rat mGluR5 receptor expressed in HEK293 cells assessed as intracellular calcium flux after 170 seconds by FLIPR assay
Type: functional, cell-based
Conditions: read-out: IC50

Row | SMILES | IC50 [nM]
59 | c1ccc(-c2cc3n(n2)CCCC3)nc1 | 1290
60 | Cc1cc(C(=O)Nc2ccc(C#N)cn2)nn1C | 2620
61 | N#Cc1ccc(COc2cc3n(n2)CCCC3)nc1 | 316

These reach a lower IC50. Values come first.

Row | IC50 [nM] | SMILES
62 | 77 | Clc1cccc(-c2cc3n(n2)CCCC3)c1
63 | 60 | O=C(Nc1ccc(F)cn1)c1cc2n(n1)CCCC2
64 | 53 | N#Cc1ccc(CC(=O)c2cc3n(n2)CCCC3)nc1

Test system: not listed separately
Assay: Intrinsic clearance in rat microsomes measured per mg of protein
Type: ADME, Microsome
Conditions: not given

Row | SMILES | microsomal CLint [µL/min/mg]
65 | c1ccc(-c2cc3n(n2)CCCC3)nc1 | 118
66 | Cc1cc(C(=O)Nc2ccc(C#N)cn2)nn1C | < 5
67 | N#Cc1ccc(COc2cc3n(n2)CCCC3)nc1 | 42

The next lines start with the values.

Row | microsomal CLint [µL/min/mg] | SMILES
68 | 384 | Clc1cccc(-c2cc3n(n2)CCCC3)c1
69 | 108 | N#Cc1ccc(CC(=O)c2cc3n(n2)CCCC3)nc1

Test system: Rattus norvegicus
Assay: Antinociceptive activity in Sprague-Dawley rat assessed as reduction in formalin-induced nocifensive behavior at 1 to 30 mg/kg, po administered 30 mins prior to formalin-challenge measured during first phase of test
Type: functional, organism-based
Conditions: not given

Row | SMILES | Activity
70 | N#Cc1ccc(COc2cc3n(n2)CCCC3)nc1 | inactive
